Experimental data published in PubChem BioAssay AID2060621 (Molecular Pharmacology Branch, DTP, NCI, 2025).
Where “and” joins values, the source holds several entries; their conditions need not be identical. Identical values can stand only once.

Tested on: 324938-238-R-J1-PDC complex spheroids viability
Test: Anticancer human tumor 324938-238-R-J1-PDC patient-derived bladder carcinoma cell line growth inhibition [CLK]
Details: for viability, T/C: stronger effect = lower value
Method in brief: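 Patient-derived tumor cells grown as complex spheroids with HUVEC endothelial cells and mesenchymal stem cells, treated with drug combinations. Concentrations descend in half-log steps from near clinical Cmax, or from 10 microM if Cmax unknown.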

[1] = curve of first compound, second compound 0.0316 µM
[2] = curve of first compound, second compound 0.1 µM
[3] = curve of first compound, second compound 0.316 µM
[4] = curve of first compound, second compound 1 µM
[5] = curve of first compound, second compound 3.16 µM
[6] = curve of first compound, second compound 10 µM
[7] = second compound 0.0316 µM, first compound 0.0316 µM
[8] = second compound 0.0316 µM, first compound 0.1 µM
[9] = second compound 0.0316 µM, first compound 0.316 µM
[10] = second compound 0.0316 µM, first compound 1 µM
[11] = second compound 0.0316 µM, first compound 3.16 µM
[12] = second compound 0.0316 µM, first compound 10 µM
[13] = second compound 0.1 µM, first compound 0.0316 µM
[14] = second compound 0.1 µM, first compound 0.1 µM
[15] = second compound 0.1 µM, first compound 0.316 µM
[16] = second compound 0.1 µM, first compound 1 µM
[17] = second compound 0.1 µM, first compound 3.16 µM
[18] = second compound 0.1 µM, first compound 10 µM
[19] = second compound 0.316 µM, first compound 0.0316 µM
[20] = second compound 0.316 µM, first compound 0.1 µM
[21] = second compound 0.316 µM, first compound 0.316 µM
[22] = second compound 0.316 µM, first compound 1 µM
[23] = second compound 0.316 µM, first compound 3.16 µM
[24] = second compound 0.316 µM, first compound 10 µM
[25] = second compound 1 µM, first compound 0.0316 µM
[26] = second compound 1 µM, first compound 0.1 µM
[27] = second compound 1 µM, first compound 0.316 µM
[28] = second compound 1 µM, first compound 1 µM
[29] = second compound 1 µM, first compound 3.16 µM
[30] = second compound 1 µM, first compound 10 µM
[31] = second compound 3.16 µM, first compound 0.0316 µM
[32] = second compound 3.16 µM, first compound 0.1 µM
[33] = second compound 3.16 µM, first compound 0.316 µM
[34] = second compound 3.16 µM, first compound 1 µM
[35] = second compound 3.16 µM, first compound 3.16 µM
[36] = second compound 3.16 µM, first compound 10 µM
[37] = second compound 10 µM, first compound 0.0316 µM
[38] = second compound 10 µM, first compound 0.1 µM
[39] = second compound 10 µM, first compound 0.316 µM
[40] = second compound 10 µM, first compound 1 µM
[41] = second compound 10 µM, first compound 3.16 µM
[42] = second compound 10 µM, first compound 10 µM
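Note: viability read after seven days of drug exposure.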
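Throughout, for viability, T/C: 100% = DMSO vehicle control wells.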

## CC(=O)O[C@H]1C(=O)[C@@]2(C)[C@H]([C@H](OC(=O)c3ccccc3)[C@]3(O)C[C@H](OC(=O)[C@H](O)[C@@H](NC(=O)c4ccccc4)c4ccccc4)C(C)=C1C3(C)C)[C@]1(OC(C)=O)CO[C@@H]1C[C@@H]2O + CNC(=O)c1ccc(Nc2nc(OC3CCCC3)c3c(-c4ccc5nc(C)oc5c4)c[nH]c3n2)c(OC)c1
[1]
  IC50: < 0.0316 µM
[2]
  IC50: < 0.0316 µM
[3]
  IC50: < 0.0316 µM
[4]
  IC50: < 0.0316 µM
[5]
  IC50: < 0.0316 µM
[6]
  IC50: < 0.0316 µM
[7]
  viability, T/C: 14.3%
[8]
  viability, T/C: 15.1%
[9]
  viability, T/C: 13.8%
[10]
  viability, T/C: 14.1%
[11]
  viability, T/C: 17.1%
[12]
  viability, T/C: 22%
[13]
  viability, T/C: 19.8%
[14]
  viability, T/C: 17.3%
[15]
  viability, T/C: 22.2%
[16]
  viability, T/C: 21.9%
[17]
  viability, T/C: 27.4%
[18]
  viability, T/C: 35.1%
[19]
  viability, T/C: 16.9%
[20]
  viability, T/C: 17.5%
[21]
  viability, T/C: 26.2%
[22]
  viability, T/C: 27.8%
[23]
  viability, T/C: 35.2%
[24]
  viability, T/C: 37%
[25]
  viability, T/C: 17.1%
[26]
  viability, T/C: 17.7%
[27]
  viability, T/C: 23.9%
[28]
  viability, T/C: 24.2%
[29]
  viability, T/C: 31.9%
[30]
  viability, T/C: 28.6%
[31]
  viability, T/C: 16.6%
[32]
  viability, T/C: 18.2%
[33]
  viability, T/C: 20.1%
[34]
  viability, T/C: 24.6%
[35]
  viability, T/C: 27.2%
[36]
  viability, T/C: 27.2%
[37]
  viability, T/C: 16.9%
[38]
  viability, T/C: 18.1%
[39]
  viability, T/C: 20.6%
[40]
  viability, T/C: 23.5%
[41]
  viability, T/C: 25.1%
[42]
  viability, T/C: 25.6%

## Nc1ccn(C2OC(CO)C(O)C2(F)F)c(=O)n1 (configuration not stated)
Compound 0.0316 µM
  viability, T/C: 27.6% and 25.4%
Compound 0.1 µM
  viability, T/C: 12.5% and 15%
Compound 0.316 µM
  viability, T/C: 10.8% and 12.3%
Compound 1 µM
  viability, T/C: 10.8% and 13.3%
Compound 3.16 µM
  viability, T/C: 8.49% and 10.3%
Compound 10 µM
  viability, T/C: 6.92% and 8.69%
Curve of compound
  IC50: < 0.0316 µM

## CC(CO)NC(=O)c1cc(-c2ccc(Cl)cc2)nn(-c2cnn(C)c2)c1=O (configuration not stated) + CNC(=O)c1ccc(Nc2nc(OC3CCCC3)c3c(-c4ccc5nc(C)oc5c4)c[nH]c3n2)c(OC)c1
[1]
  IC50: > 10 µM
[2]
  IC50: < 0.0316 µM
[3]
  IC50: < 0.0316 µM
[4]
  IC50: < 0.0316 µM
[5]
  IC50: < 0.0316 µM
[6]
  IC50: < 0.0316 µM
[7]
  viability, T/C: 82.2%
[8]
  viability, T/C: 90.3%
[9]
  viability, T/C: 89.1%
[10]
  viability, T/C: 81.1%
[11]
  viability, T/C: 66.1%
[12]
  viability, T/C: 50.6%
[13]
  viability, T/C: 28.9%
[14]
  viability, T/C: 33.2%
[15]
  viability, T/C: 34.6%
[16]
  viability, T/C: 35%
[17]
  viability, T/C: 29.4%
[18]
  viability, T/C: 28%
[19]
  viability, T/C: 19%
[20]
  viability, T/C: 19.3%
[21]
  viability, T/C: 21.6%
[22]
  viability, T/C: 18.7%
[23]
  viability, T/C: 19.1%
[24]
  viability, T/C: 21.1%
[25]
  viability, T/C: 16.4%
[26]
  viability, T/C: 16%
[27]
  viability, T/C: 15.9%
[28]
  viability, T/C: 16.9%
[29]
  viability, T/C: 18.4%
[30]
  viability, T/C: 18.6%
[31]
  viability, T/C: 15.9%
[32]
  viability, T/C: 15.5%
[33]
  viability, T/C: 15.1%
[34]
  viability, T/C: 16.2%
[35]
  viability, T/C: 18.1%
[36]
  viability, T/C: 17.6%
[37]
  viability, T/C: 17.3%
[38]
  viability, T/C: 16.3%
[39]
  viability, T/C: 15.2%
[40]
  viability, T/C: 16.5%
[41]
  viability, T/C: 17%
[42]
  viability, T/C: 15.6%

## COC1C=CCC(C)C(C)S(=O)(=O)NC(=O)c2ccc3c(c2)N(CC2CCC21)CC1(CCCc2cc(Cl)ccc21)CO3 (configuration not stated)
Compound 0.0316 µM
  viability, T/C: 73.8% and 71.3%
Compound 0.1 µM
  viability, T/C: 78.3% and 65.3%
Compound 0.316 µM
  viability, T/C: 39.4% and 28.4%
Compound 1 µM
  viability, T/C: 21% and 21.4%
Compound 3.16 µM
  viability, T/C: 17.9% and 14.6%
Compound 10 µM
  viability, T/C: 10.5% and 7.78%
Curve of compound
  IC50: 0.227 µM and 0.16 µM

## Cn1ncnc1[C@H]1c2n[nH]c(=O)c3cc(F)cc(c23)N[C@@H]1c1ccc(F)cc1 + CN1CCN(c2cc(C(=O)Nc3cc4cc(-c5cnn(C)c5)ccc4cn3)ccn2)CC1
[1]
  IC50: 0.00866 µM
[2]
  IC50: 0.00153 µM
[3]
  IC50: < 0.000316 µM
[4]
  IC50: < 0.000316 µM
[5]
  IC50: < 0.000316 µM
[6]
  IC50: < 0.000316 µM
Second compound 0.0316 µM, first compound 0.000316 µM
  viability, T/C: 78%
Second compound 0.0316 µM, first compound 0.001 µM
  viability, T/C: 74%
Second compound 0.0316 µM, first compound 0.00316 µM
  viability, T/C: 58.2%
Second compound 0.0316 µM, first compound 0.01 µM
  viability, T/C: 51.9%
[7]
  viability, T/C: 32.5%
[8]
  viability, T/C: 24.4%
Second compound 0.1 µM, first compound 0.000316 µM
  viability, T/C: 57.5%
Second compound 0.1 µM, first compound 0.001 µM
  viability, T/C: 54.8%
Second compound 0.1 µM, first compound 0.00316 µM
  viability, T/C: 43.6%
Second compound 0.1 µM, first compound 0.01 µM
  viability, T/C: 32.7%
[13]
  viability, T/C: 27%
[14]
  viability, T/C: 19.8%
Second compound 0.316 µM, first compound 0.000316 µM
  viability, T/C: 23.8%
Second compound 0.316 µM, first compound 0.001 µM
  viability, T/C: 22.4%
Second compound 0.316 µM, first compound 0.00316 µM
  viability, T/C: 23.1%
Second compound 0.316 µM, first compound 0.01 µM
  viability, T/C: 21.2%
[19]
  viability, T/C: 18.5%
[20]
  viability, T/C: 15%
Second compound 1 µM, first compound 0.000316 µM
  viability, T/C: 0.86%
Second compound 1 µM, first compound 0.001 µM
  viability, T/C: 0.77%
Second compound 1 µM, first compound 0.00316 µM
  viability, T/C: 0.99%
Second compound 1 µM, first compound 0.01 µM
  viability, T/C: 0.51%
[25]
  viability, T/C: 0.6%
[26]
  viability, T/C: 1.4%
Second compound 3.16 µM, first compound 0.000316 µM
  viability, T/C: 0.15%
Second compound 3.16 µM, first compound 0.001 µM
  viability, T/C: 0.2%
Second compound 3.16 µM, first compound 0.00316 µM
  viability, T/C: 0.14%
Second compound 3.16 µM, first compound 0.01 µM
  viability, T/C: 0.09%
[31]
  viability, T/C: 0.12%
[32]
  viability, T/C: 0.14%
Second compound 10 µM, first compound 0.000316 µM
  viability, T/C: 0.07%
Second compound 10 µM, first compound 0.001 µM
  viability, T/C: 0.13%
Second compound 10 µM, first compound 0.00316 µM
  viability, T/C: 0.16%
Second compound 10 µM, first compound 0.01 µM
  viability, T/C: 0.12%
[37]
  viability, T/C: 0.12%
[38]
  viability, T/C: 0.19%

## Nc1ccn(C2OC(CO)C(O)C2(F)F)c(=O)n1 (configuration not stated) + CNC(=O)c1ccc(Nc2nc(OC3CCCC3)c3c(-c4ccc5nc(C)oc5c4)c[nH]c3n2)c(OC)c1
[1]
  IC50: < 0.0316 µM
[2]
  IC50: < 0.0316 µM
[3]
  IC50: < 0.0316 µM
[4]
  IC50: < 0.0316 µM
[5]
  IC50: < 0.0316 µM
[6]
  IC50: < 0.0316 µM
[7]
  viability, T/C: 38.6%
[8]
  viability, T/C: 16.4%
[9]
  viability, T/C: 15.2%
[10]
  viability, T/C: 14%
[11]
  viability, T/C: 10.6%
[12]
  viability, T/C: 8.72%
[13]
  viability, T/C: 23%
[14]
  viability, T/C: 18.8%
[15]
  viability, T/C: 12.8%
[16]
  viability, T/C: 14.2%
[17]
  viability, T/C: 10.3%
[18]
  viability, T/C: 7.12%
[19]
  viability, T/C: 17.1%
[20]
  viability, T/C: 14.8%
[21]
  viability, T/C: 12.3%
[22]
  viability, T/C: 12.5%
[23]
  viability, T/C: 8.68%
[24]
  viability, T/C: 7.82%
[25]
  viability, T/C: 15%
[26]
  viability, T/C: 15.4%
[27]
  viability, T/C: 12.2%
[28]
  viability, T/C: 11.6%
[29]
  viability, T/C: 9.63%
[30]
  viability, T/C: 8.24%
[31]
  viability, T/C: 17.1%
[32]
  viability, T/C: 13.7%
[33]
  viability, T/C: 13%
[34]
  viability, T/C: 12%
[35]
  viability, T/C: 8.99%
[36]
  viability, T/C: 9.03%
[37]
  viability, T/C: 18%
[38]
  viability, T/C: 12.9%
[39]
  viability, T/C: 14.3%
[40]
  viability, T/C: 12.1%
[41]
  viability, T/C: 13.4%
[42]
  viability, T/C: 8.05%
